Assay [1] addresses T1, Amyloid-beta precursor protein (Homo sapiens, UniProt P05067). Description: Inhibition of amyloid beta 40 secretion transfected in human H4 cells incubated for 20 to 24 hrs by LPECL assay.
For assay [2], the target named is T1, Amyloid-beta precursor protein. Kind of assay: Inhibition of amyloid beta 42 secretion transfected in human H4 cells incubated for 20 to 24 hrs by LPECL assay.

Structures are written as SMILES.

T1 sequence (P05067 whole entry): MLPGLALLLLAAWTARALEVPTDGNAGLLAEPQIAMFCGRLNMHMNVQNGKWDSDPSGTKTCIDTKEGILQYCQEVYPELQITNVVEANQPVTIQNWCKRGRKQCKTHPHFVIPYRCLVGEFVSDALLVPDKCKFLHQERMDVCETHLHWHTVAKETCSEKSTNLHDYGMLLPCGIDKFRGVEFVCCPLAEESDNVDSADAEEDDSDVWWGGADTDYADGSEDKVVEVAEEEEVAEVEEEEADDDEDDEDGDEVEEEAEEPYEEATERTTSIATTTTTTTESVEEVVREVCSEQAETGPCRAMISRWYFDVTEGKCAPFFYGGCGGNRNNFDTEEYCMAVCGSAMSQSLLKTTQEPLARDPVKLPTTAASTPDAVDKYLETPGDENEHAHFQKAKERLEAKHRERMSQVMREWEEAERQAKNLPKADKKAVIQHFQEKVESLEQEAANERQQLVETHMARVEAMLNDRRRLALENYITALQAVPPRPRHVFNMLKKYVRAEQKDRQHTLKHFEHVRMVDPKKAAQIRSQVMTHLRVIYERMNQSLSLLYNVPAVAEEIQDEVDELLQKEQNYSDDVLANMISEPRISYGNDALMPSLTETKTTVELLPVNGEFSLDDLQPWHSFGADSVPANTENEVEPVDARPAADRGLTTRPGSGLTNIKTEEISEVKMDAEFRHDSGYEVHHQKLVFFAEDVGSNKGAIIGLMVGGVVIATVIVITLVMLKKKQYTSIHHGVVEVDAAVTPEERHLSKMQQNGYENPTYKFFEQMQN

For the molecule `COc1cc(/C=C/c2cc(/C=C/c3ccc(O)c(OC)c3)n(-c3ccccc3)n2)ccc1O`, the IC50 was found to be 11.3 µM in assay [1] and 14.2 µM in assay [2]. The matching figures for `COc1cc(/C=C/c2cc(/C=C/c3ccc(O)c(OC)c3)n(C)n2)ccc1O`: 10.4 µM and 9 µM.

In assay [1], `COc1cc(/C=C/c2cc(/C=C/c3ccc(O)c(OC)c3)n(-c3ccc([N+](=O)[O-])cc3)n2)ccc1O` displayed a half-inhibitory concentration (IC50) of 6.2 µM. Take `COc1cc(/C=C/c2cc(/C=C/c3ccc(O)c(OC)c3)n(-c3ccc(C)cc3)n2)ccc1O`: the IC50 in assay [1] came to 8.7 µM; in assay [2], 5 µM. The matching figures for `COc1cc(/C=C/c2cc(/C=C/c3ccc(O)c(OC)c3)n(-c3cc(Cl)cc(Cl)c3)n2)ccc1O`: 6.3 µM and 3.5 µM. The matching figures for `COc1cc(/C=C/c2cc(/C=C/c3ccc(O)c(OC)c3)n(-c3cccc([N+](=O)[O-])c3)n2)ccc1O`: 15.1 µM and 14.2 µM.

In the case of `COc1cc(/C=C/c2cc(/C=C/c3ccc(O)c(OC)c3)n(CCO)n2)ccc1O`, the IC50 is 17.8 µM in assay [1] and 17.3 µM in assay [2]. The matching figures for `COc1cc(/C=C/c2cc(/C=C/c3ccc(O)c(OC)c3)[nH]n2)ccc1O` [4-(2-(5-(4-hydroxy-3-methoxystyryl)-1H-pyrazol-3-yl)vinyl)-2-methoxyphenol]: 9.7 µM and 8.7 µM. Turning to `COc1cc(/C=C/c2cc(/C=C/c3ccc(O)c(OC)c3)n(-c3ccc(C(C)C)cc3)n2)ccc1O`, the figures for the IC50 in assay [1] and in assay [2] were 6.9 µM and 4.4 µM, respectively. The matching figures for `COc1cc(/C=C/c2cc(/C=C/c3ccc(O)c(OC)c3)on2)ccc1O` [4-((E)-2-{3-[(E)-2-(4-hydroxy-3-methoxyphenyl)vinyl]isoxazol-5-yl}vinyl)-2-methoxyphenol]: 7.4 µM and 6.8 µM. Turning to `COc1cc(/C=C/c2cc(/C=C/c3ccc(O)c(OC)c3)n(-c3ccc(Cl)nn3)n2)ccc1O`, the 50% inhibitory concentration (IC50) in assay [1] stood at 5.4 µM; in assay [2], 4.8 µM.

In the case of `COc1cc(/C=C/c2cc(/C=C/c3ccc(OCC(=O)OC(C)(C)C)c(OC)c3)on2)ccc1OCC(=O)OC(C)(C)C`, the IC50 in assay [1] and in assay [2] was over 40 µM each time.

With `COc1cc(/C=C/c2cc(/C=C/c3ccc(O)c(OC)c3)n(Cc3ccccc3)n2)ccc1O`, the IC50 in assay [1] worked out at 11.5 µM; in assay [2] it was 15.3 µM.

As for `COc1cc(/C=C/c2cc(/C=C/c3ccc(OCC(=O)O)c(OC)c3)on2)ccc1OCC(=O)O`, the IC50 in assay [1] was 14.1 µM; in assay [2], over 40 µM.

The IC50 is the concentration needed to halve the response being measured.

Source of the values: BindingDB's records for PubMed 33548635 (University of Aveiro, 2021).
